According to ChEMBL document CHEMBL4118157, “Efficiency of newly prepared thiazole derivatives against some cutaneous fungi” (2018):
Converted amounts (≈) assume the structure as drawn.

Tests used:
[1] = tested on: Candida albicans; assay: Antifungal activity against Candida albicans after 48 hrs by broth microdilution method; format: functional
[2] = tested on: Nannizzia gypsea; assay: Antifungal activity against Microsporum gypseum after 72 hrs by broth microdilution method; format: functional
[3] = tested on: Trichophyton mentagrophytes; assay: Antifungal activity against Trichophyton mentagrophytes after 72 hrs by broth microdilution method; format: functional
[4] = tested on: Candida albicans; assay: Fungicidal activity against Candida albicans measured after 72 hrs; format: functional
[5] = tested on: Nannizzia gypsea; assay: Fungicidal activity against Microsporum gypseum measured after 96 hrs; format: functional
[6] = tested on: Trichophyton mentagrophytes; assay: Fungicidal activity against Trichophyton mentagrophytes measured after 96 hrs; format: functional
[7] = tested on: Candida albicans; assay: Inhibition of Candida albicans keratinase activity at MIC incubated for 5 days under non-shaking condition and subsequent incubation for 5 days under shaking condition by UV-vis spectrophotometric analysis relative to control
[8] = tested on: Nannizzia gypsea; assay: Inhibition of Microsporum gypseum keratinase activity at MIC incubated for 5 days under non-shaking condition and subsequent incubation for 5 days under shaking condition by UV-vis spectrophotometric analysis relative to control
[9] = tested on: Trichophyton mentagrophytes; assay: Inhibition of Trichophyton mentagrophytes keratinase activity at MIC incubated for 5 days under non-shaking condition and subsequent incubation for 5 days under shaking condition by UV-vis spectrophotometric analysis relative to control
[10] = tested on: Candida albicans; assay: Inhibition of Candida albicans keratinase activity at 2 ppm incubated for 5 days under non-shaking condition and subsequent incubation for 5 days under shaking condition by UV-vis spectrophotometric analysis relative to control
[11] = tested on: Nannizzia gypsea; assay: Inhibition of Microsporum gypseum keratinase activity at 4 ppm incubated for 5 days under non-shaking condition and subsequent incubation for 5 days under shaking condition by UV-vis spectrophotometric analysis relative to control
[12] = tested on: Trichophyton mentagrophytes; assay: Inhibition of Trichophyton mentagrophytes keratinase activity at 4 ppm incubated for 5 days under non-shaking condition and subsequent incubation for 5 days under shaking condition by UV-vis spectrophotometric analysis relative to control
[13] = tested on: Candida albicans; assay: Antifungal activity against Candida albicans infected in guinea pig skin assessed as recovery from infection at 10 mg/g administered once daily via superficial route for 15 days measured after 30 days post last dose relative to control; format: functional
[14] = tested on: Nannizzia gypsea; assay: Antifungal activity against Microsporum gypseum infected in guinea pig skin assessed as recovery from infection at 10 mg/g administered once daily via superficial route for 15 days measured after 30 days post last dose relative to control; format: functional
[15] = tested on: Trichophyton mentagrophytes; assay: Antifungal activity against Trichophyton mentagrophytes infected in guinea pig skin assessed as recovery from infection at 10 mg/g administered once daily via superficial route for 15 days measured after 30 days post last dose relative to control; format: functional
[16] = tested on: Fungi; assay: Inhibition of fungal keratinase activity at 10 mg/ml relative to control
[17] = tested on: Trichophyton terrestre; assay: Inhibition of Trichophyton terrestre keratinase activity at 10 ug/ml incubated for 5 days under non-shaking condition and subsequent incubation for 5 days under shaking condition by UV-vis spectrophotometric analysis relative to control
[18] = tested on: Nannizzia gypsea; assay: Inhibition of Microsporum gypseum keratinase activity at 10 ug/ml incubated for 5 days under non-shaking condition and subsequent incubation for 5 days under shaking condition by UV-vis spectrophotometric analysis relative to control
[19] = tested on: Trichophyton rubrum; assay: Inhibition of Trichophyton rubrum keratinase activity at 10 ug/ml incubated for 5 days under non-shaking condition and subsequent incubation for 5 days under shaking condition by UV-vis spectrophotometric analysis relative to control
[20] = tested on: Epidermophyton floccosum; assay: Inhibition of Epidermophyton floccosum keratinase activity at 10 ug/ml incubated for 5 days under non-shaking condition and subsequent incubation for 5 days under shaking condition by UV-vis spectrophotometric analysis relative to control
[21] = tested on: Candida albicans; assay: Inhibition of ergosterol biosynthesis in Candida albicans at MIC by spectrophotometric method relative to control; format: functional
[22] = tested on: Nannizzia gypsea; assay: Inhibition of ergosterol biosynthesis in Microsporum gypseum at MIC by spectrophotometric method relative to control; format: functional
[23] = tested on: Trichophyton mentagrophytes; assay: Inhibition of ergosterol biosynthesis in Trichophyton mentagrophytes at MIC by spectrophotometric method relative to control; format: functional
[24] = tested on: Fungi; assay: Inhibition of fungal keratinase activity at 0.1 to 10 mg/ml relative to control

| Compound | MIC [1] | MIC [2] | MIC [3] | MFC [4] | MFC [5] | MFC [6] | other results |
| --- | --- | --- | --- | --- | --- | --- | --- |
| CN1CCC(=NNC2=NC(=O)/C(=N\Nc3ccc([N+](=O)[O-])cc3)S2)CC1 | 64 µg/mL (≈ 170 µM) | 128 µg/mL (≈ 341 µM) | 128 µg/mL (≈ 341 µM) | 256 µg/mL (≈ 682 µM) | > 256 µg/mL | > 256 µg/mL |  |
| Cc1nc(NN=C2CCN(C)CC2)sc1/N=N/c1ccccc1 | 16 µg/mL (≈ 48.7 µM) | 64 µg/mL (≈ 195 µM) | 64 µg/mL (≈ 195 µM) | 128 µg/mL (≈ 390 µM) | 128 µg/mL (≈ 390 µM) | 245 µg/mL (≈ 746 µM) | inhibition [7]: 33.4 to 46.3%; inhibition [8]: 33.4 to 46.3%; inhibition [9]: 33.4 to 46.3% |
| CN1CCC(=NNc2nc(-c3ccccc3)c(/N=N/c3ccccc3)s2)CC1 | 2 µg/mL (≈ 5.12 µM) | 4 µg/mL (≈ 10.2 µM) | 4 µg/mL (≈ 10.2 µM) | 4 µg/mL (≈ 10.2 µM) | 16 µg/mL (≈ 41 µM) | 16 µg/mL (≈ 41 µM) | inhibition [10]: 77 to 94%; inhibition [11]: 77 to 94%; inhibition [12]: 77 to 94% |
| COc1ccc(/N=N/c2sc(NN=C3CCN(C)CC3)nc2-c2ccccc2)cc1 | 2 µg/mL (≈ 4.76 µM) | 4 µg/mL (≈ 9.51 µM) | 4 µg/mL (≈ 9.51 µM) | 4 µg/mL (≈ 9.51 µM) | 8 µg/mL (≈ 19 µM) | 32 µg/mL (≈ 76.1 µM) | inhibition [10]: 88.8 to 95%; inhibition [11]: 88.8 to 95%; inhibition [12]: 88.8 to 95%; Activity [13]: 100%; Activity [14]: 92%; Activity [15]: 85% |
| c1ccc(-c2ccc(C(c3ccccc3)n3ccnc3)cc2)cc1 (stereo not given) |  |  |  |  |  |  | inhibition [16]: 50% |
| Cc1nc(NN=C2CCN(C)CC2)sc1/N=N/c1ccccc1Cl | 32 µg/mL (≈ 88.2 µM) | 64 µg/mL (≈ 176 µM) | 64 µg/mL (≈ 176 µM) | 128 µg/mL (≈ 353 µM) | 256 µg/mL (≈ 705 µM) | > 256 µg/mL |  |
| Cc1ccc(/N=N/c2sc(NN=C3CCN(C)CC3)nc2C)cc1 | 16 µg/mL (≈ 46.7 µM) | 32 µg/mL (≈ 93.4 µM) | 32 µg/mL (≈ 93.4 µM) | 64 µg/mL (≈ 187 µM) | 128 µg/mL (≈ 374 µM) | 256 µg/mL (≈ 748 µM) |  |
| CN(C/C=C/C#CC(C)(C)C)Cc1cccc2ccccc12 |  |  |  |  |  |  | inhibition [17]: 66%; inhibition [18]: 71.9%; inhibition [19]: 51.7%; inhibition [20]: 72.3% |
| Cc1nc(NN=C2CCN(C)CC2)sc1/N=N/c1ccc(Cl)cc1 | 16 µg/mL (≈ 44.1 µM) | 16 µg/mL (≈ 44.1 µM) | 16 µg/mL (≈ 44.1 µM) | 32 µg/mL (≈ 88.2 µM) | 128 µg/mL (≈ 353 µM) | 128 µg/mL (≈ 353 µM) |  |
| CN1CCC(=NNC2=NC(=O)/C(=N\Nc3ccccc3)S2)CC1 | 2 µg/mL (≈ 6.05 µM) | 4 µg/mL (≈ 12.1 µM) | 4 µg/mL (≈ 12.1 µM) | 4 µg/mL (≈ 12.1 µM) | 8 µg/mL (≈ 24.2 µM) | 16 µg/mL (≈ 48.4 µM) | inhibition [10]: 96%; inhibition [11]: 94%; inhibition [12]: 91.4%; inhibition (INH) [21]: 73.3%; inhibition (INH) [22]: 86.4%; inhibition (INH) [23]: 74.3%; Activity [13]: 100%; Activity [14]: 91%; Activity [15]: 87% |
| N#C/C(=C1/SCC(c2ccccc2Cl)S1)n1ccnc1 (stereo not given) |  |  |  |  |  |  | inhibition [24]: 40 to 70% |
